Measured values published in ChEMBL document CHEMBL1697731, “Cheminformatics analysis of assertions mined from literature that describe drug-induced liver injury in different species” (Chem Res Toxicol, 2010).

Assays:
[1] = test system: Hepatotoxicity; test: Literature-mined compound from Fourches et al multi-species drug-induced liver injury (DILI) dataset, effect in humans; conditions: human
[2] = test system: Hepatotoxicity; test: Literature-mined compound from Fourches et al multi-species drug-induced liver injury (DILI) dataset, effect in non-rodents
[3] = test system: Hepatotoxicity; test: Literature-mined compound from Fourches et al multi-species drug-induced liver injury (DILI) dataset, effect in rodents; conditions: rodentia

Row | SMILES | Hepatotoxicity [1] | Hepatotoxicity [2] | Hepatotoxicity [3] | Hepatotoxicity ([1]; Liver) | Hepatotoxicity ([2]; Liver) | Hepatotoxicity ([3]; Liver)
1 | C[C@H](CCC(=O)O)[C@H]1CC[C@H]2[C@@H]3C(=O)C[C@@H]4CC(=O)CC[C@]4(C)[C@H]3CC(=O)[C@]12C [DEHYDROCHOLIC ACID] | no drug-induced liver injury reported | no drug-induced liver injury reported | drug-induced liver injury reported |  |  | 
2 | CCC1=C(C[C@H]2NCCc3cc(OC)c(OC)cc32)C[C@H]2c3cc(OC)c(OC)cc3CCN2C1 [DEHYDROEMETINE] | no drug-induced liver injury reported | no drug-induced liver injury reported | drug-induced liver injury reported |  |  | 
3 | C#C[C@]1(O)CC[C@H]2[C@@H]3CCC4=CCCC[C@@H]4[C@H]3C(=C)C[C@@]21CC [DESOGESTREL] | drug-induced liver injury reported | no drug-induced liver injury reported | no drug-induced liver injury reported |  |  | 
4 | CN1C(=O)[C@@H](NC(=O)c2cc3ccccc3[nH]2)N=C(c2ccccc2)c2ccccc21 [DEVAZEPIDE] | no drug-induced liver injury reported | no drug-induced liver injury reported | drug-induced liver injury reported |  |  | 
5 | C[C@@H]1C[C@H]2[C@@H]3CCC4=CC(=O)C=C[C@]4(C)[C@@]3(F)[C@@H](O)C[C@]2(C)[C@@]1(O)C(=O)CO [DEXAMETHASONE] | drug-induced liver injury reported | drug-induced liver injury reported | drug-induced liver injury reported |  |  | 
6 | CCN[C@@H](C)Cc1cccc(C(F)(F)F)c1 [DEXFENFLURAMINE] | drug-induced liver injury reported | no drug-induced liver injury reported | drug-induced liver injury reported |  |  | 
7 | C[C@@H](CN1CC(=O)NC(=O)C1)N1CC(=O)NC(=O)C1 [DEXRAZOXANE] | no drug-induced liver injury reported | no drug-induced liver injury reported | drug-induced liver injury reported |  |  | 
8 | O=C[C@H](O)[C@@H](O)[C@H](O)[C@H](O)CO[C@H]1O[C@H](CO[C@H]2O[C@H](CO)[C@@H](O)[C@H](O)[C@H]2O)[C@@H](O)[C@H](O)[C@H]1O [DEXTRAN] | no drug-induced liver injury reported | drug-induced liver injury reported | drug-induced liver injury reported |  |  | 
9 | C[C@H](N)Cc1ccccc1 [DEXTROAMPHETAMINE] | no drug-induced liver injury reported | no drug-induced liver injury reported | drug-induced liver injury reported |  |  | 
10 | COc1ccc2c(c1)[C@]13CCCC[C@@H]1[C@H](C2)N(C)CC3 [DEXTROMETHORPHAN] | drug-induced liver injury reported | no drug-induced liver injury reported | no drug-induced liver injury reported |  |  | 
11 | OC[C@H]1OC(O)[C@H](O)[C@@H](O)[C@@H]1O (stereo not given in full) [DEXTROSE] | drug-induced liver injury reported | drug-induced liver injury reported | drug-induced liver injury reported |  |  | 
12 | CC(=O)Nc1c(I)c(NC(C)=O)c(I)c(C(=O)[O-])c1I.[Na+] [DIATRIZOATE SODIUM] | no drug-induced liver injury reported | no drug-induced liver injury reported | drug-induced liver injury reported |  |  | 
13 | CN1C(=O)CN=C(c2ccccc2)c2cc(Cl)ccc21 [DIAZEPAM] |  |  |  | drug-induced liver injury reported | drug-induced liver injury reported | drug-induced liver injury reported
14 | CC1=NS(=O)(=O)c2cc(Cl)ccc2N1 [DIAZOXIDE] | drug-induced liver injury reported | no drug-induced liver injury reported | drug-induced liver injury reported |  |  | 
15 | O=c1oc2ccccc2c(O)c1Cc1c(O)c2ccccc2oc1=O [DICUMAROL] | drug-induced liver injury reported | no drug-induced liver injury reported | drug-induced liver injury reported |  |  | 
16 | O=c1[nH]cnc2c1ncn2[C@H]1CC[C@@H](CO)O1 [DIDANOSINE] | drug-induced liver injury reported | no drug-induced liver injury reported | drug-induced liver injury reported |  |  | 
17 | C[C@]12CCC3=C4CCC(=O)C=C4CC[C@H]3[C@@H]1CC[C@@]2(O)CC#N [DIENOGEST] | no drug-induced liver injury reported | no drug-induced liver injury reported | drug-induced liver injury reported |  |  | 
18 | CC/C(=C(/CC)c1ccc(O)cc1)c1ccc(O)cc1 [DIETHYLSTILBESTROL] | drug-induced liver injury reported | drug-induced liver injury reported | drug-induced liver injury reported |  |  | 

Row | SMILES | Hepatotoxicity [1] | Hepatotoxicity [2] | Hepatotoxicity [3] | Hepatotoxicity ([1]; Liver) | Hepatotoxicity ([2]; Liver) | Hepatotoxicity ([3]; Liver)
19 | CCN(CC)C(=O)c1cccc(C)c1 [DIETHYLTOLUAMIDE] | no drug-induced liver injury reported | no drug-induced liver injury reported | drug-induced liver injury reported |  |  | 
20 | O=C(O)c1cc(-c2ccc(F)cc2F)ccc1O [DIFLUNISAL] |  |  |  | drug-induced liver injury reported | drug-induced liver injury reported | drug-induced liver injury reported
21 | C[C@H]1O[C@@H](O[C@H]2[C@@H](O)C[C@H](O[C@H]3[C@@H](O)C[C@H](O[C@H]4CC[C@@]5(C)[C@H](CC[C@@H]6[C@@H]5CC[C@]5(C)[C@@H](C7=CC(=O)OC7)CC[C@]65O)C4)O[C@@H]3C)O[C@@H]2C)C[C@H](O)[C@@H]1O [DIGITOXIN] | no drug-induced liver injury reported | no drug-induced liver injury reported | drug-induced liver injury reported |  |  | 
22 | C[C@H]1O[C@@H](O[C@H]2[C@@H](O)C[C@H](O[C@H]3[C@@H](O)C[C@H](O[C@H]4CC[C@@]5(C)[C@H](CC[C@@H]6[C@@H]5C[C@@H](O)[C@]5(C)[C@@H](C7=CC(=O)OC7)CC[C@]65O)C4)O[C@@H]3C)O[C@@H]2C)C[C@H](O)[C@@H]1O [DIGOXIN] | no drug-induced liver injury reported | drug-induced liver injury reported | drug-induced liver injury reported |  |  | 
23 | NNc1nnc(NN)c2ccccc12 [DIHYDRALAZINE] | drug-induced liver injury reported | no drug-induced liver injury reported | drug-induced liver injury reported |  |  | 
24 | CN1C[C@H](C(=O)N[C@]2(C)O[C@@]3(O)[C@@H]4CCCN4C(=O)[C@H](Cc4ccccc4)N3C2=O)C[C@@H]2c3cccc4[nH]cc(c34)C[C@H]21 [DIHYDROERGOTAMINE] | drug-induced liver injury reported | no drug-induced liver injury reported | drug-induced liver injury reported |  |  | 
25 | COc1ccc([C@@H]2Sc3ccccc3N(CCN(C)C)C(=O)[C@@H]2OC(C)=O)cc1 [DILTIAZEM] | drug-induced liver injury reported | drug-induced liver injury reported | drug-induced liver injury reported |  |  | 
26 | C[S+](C)[O-] [DIMETHYL SULFOXIDE] | drug-induced liver injury reported | drug-induced liver injury reported | drug-induced liver injury reported |  |  | 
27 | CCCCC[C@H](O)/C=C/[C@H]1[C@H](O)CC(=O)[C@@H]1C/C=C\CCCC(=O)O [DINOPROSTONE] | drug-induced liver injury reported | no drug-induced liver injury reported | drug-induced liver injury reported |  |  | 
28 | CCCCC[C@H](O)/C=C/[C@@H]1[C@@H](C/C=C\CCCC(=O)O)[C@@H](O)C[C@H]1O [DINOPROST] | drug-induced liver injury reported | drug-induced liver injury reported | drug-induced liver injury reported |  |  | 
29 | COc1ccc(-c2cc(=O)c3c(O)cc(O[C@@H]4O[C@H](CO[C@@H]5O[C@@H](C)[C@H](O)[C@@H](O)[C@H]5O)[C@@H](O)[C@H](O)[C@H]4O)cc3o2)cc1O [DIOSMIN] | no drug-induced liver injury reported | no drug-induced liver injury reported | drug-induced liver injury reported |  |  | 
30 | CN(C)CCOC(c1ccccc1)c1ccccc1 [DIPHENHYDRAMINE] |  |  |  | no drug-induced liver injury reported | no drug-induced liver injury reported | drug-induced liver injury reported
31 | Cc1c(N(C)CS(=O)(=O)[O-])c(=O)n(-c2ccccc2)n1C.[Na+] [DIPYRONE SODIUM] | drug-induced liver injury reported | no drug-induced liver injury reported | drug-induced liver injury reported |  |  | 
32 | C=C/C=C\[C@H](C)[C@H](OC(N)=O)[C@@H](C)[C@H](O)[C@@H](C)C/C(C)=C\[C@H](C)[C@@H](O)[C@@H](C)/C=C\[C@@H](O)C[C@@H]1OC(=O)[C@H](C)[C@@H](O)[C@H]1C [DISERMOLIDE] | drug-induced liver injury reported | no drug-induced liver injury reported | no drug-induced liver injury reported |  |  | 
33 | CC(C)N(CCC(C(N)=O)(c1ccccc1)c1ccccn1)C(C)C (stereo not given) [DISOPYRAMIDE] | drug-induced liver injury reported | no drug-induced liver injury reported | no drug-induced liver injury reported |  |  | 
34 | CCN(CC)C(=S)[S][Na] [DITIOCARB SODIUM] | no drug-induced liver injury reported | no drug-induced liver injury reported | drug-induced liver injury reported |  |  | 
35 | CC(CCc1ccc(O)cc1)NCCc1ccc(O)c(O)c1 (stereo not given) [DOBUTAMINE] | drug-induced liver injury reported | drug-induced liver injury reported | no drug-induced liver injury reported |  |  | 
